How the values were obtained:
[1] = intravenous toxicity in anaesthetised rats; format: in vivo; conditions: two anaesthetised rats, ten times the dose giving approximate 50% inhibition of gastric secretion in the anaesthetised rat
Protocol: (§1) No overt toxicity or side effects were noted during the rat or dog tests. The compound 5-[4-(2-allylguanidino)-1,2,3-triazol-2-yl]valeramide was administered intravenously to groups of two anaesthetised rats and four conscious mice at doses which were respectively ten times and one hundred times the dose, in mg/kg., which produced an approximate 50% inhibition of gastric secretion in the anaesthetised rat.

[2] = intravenous toxicity in conscious mice; format: in vivo; conditions: four conscious mice, one hundred times the dose giving approximate 50% inhibition of gastric secretion in the anaesthetised rat
Protocol: as §1

C=CCN=C(N)Nc1cnn(CCCCC(N)=O)n1.O=C(O)/C=C\C(=O)O [Example 8, 5-(4-[2-allylguanidino]-1,2,3-triazol-2-yl)valeramide maleate]
toxic symptoms [1]: No toxic symptoms were noted | toxic symptoms [2]: No toxic symptoms were noted
